Reference: publication PMC13286573, “Exploration of precision coregulator TR-FRET identifies diverse signatures for LXR ligands relevant to discovery of nonlipogenic ABCA1 inducers” (eLife, 2026)

Experiments:
LXRβ [1] = biological target: T1, LXRβ (Homo sapiens, UniProt P55055); assay: SMRT2 corepressor binding to LXRβ, CRT; format: biochemical; design: The CRT selectivity assay incorporates GST-tagged LXR-LBD; purchased Thermo Fisher Scientific PV4660; details: for activity at 1 µM: ligand 1 µM, interpolated from concentration-response, normalized, heat map Figure 9A, read-out: SMRT2β, relative % activity at 1 μM
T1 sequence (P55055 222-460 limits assumed): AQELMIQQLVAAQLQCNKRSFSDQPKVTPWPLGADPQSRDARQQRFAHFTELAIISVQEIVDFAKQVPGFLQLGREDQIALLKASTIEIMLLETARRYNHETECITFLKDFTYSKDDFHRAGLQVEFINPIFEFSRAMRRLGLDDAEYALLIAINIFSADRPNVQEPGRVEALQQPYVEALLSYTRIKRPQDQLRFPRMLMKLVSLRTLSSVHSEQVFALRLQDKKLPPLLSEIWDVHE

LXRα [2] = biological target: T2, LXRα (Homo sapiens, UniProt Q13133); assay: SMRT2 corepressor binding to LXRα, CRT; format: biochemical; design: The CRT selectivity assay incorporates GST-tagged LXR-LBD; purchased Thermo Fisher Scientific PV4657; details: for activity at 1 µM: ligand 1 µM, interpolated from concentration-response, normalized, heat map Figure 9A, read-out: SMRT2α, relative % activity at 1 μM
T2 sequence (Q13133 209-447 limits assumed): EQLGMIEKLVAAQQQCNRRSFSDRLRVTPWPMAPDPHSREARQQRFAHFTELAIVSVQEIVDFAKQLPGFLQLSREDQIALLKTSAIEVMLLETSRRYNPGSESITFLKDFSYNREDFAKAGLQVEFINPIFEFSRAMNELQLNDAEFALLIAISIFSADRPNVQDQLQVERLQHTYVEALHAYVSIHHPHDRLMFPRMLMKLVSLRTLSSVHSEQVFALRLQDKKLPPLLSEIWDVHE

LXR = assay: Corepressor (NCOR2, SMRT2) binding to LXR, CRT, statements across isoforms; format: biochemical; details: monoplex CRT, absence of coactivator
LXRβ [3] = biological target: T1, LXRβ; assay: NCOR2 corepressor binding to LXRβ, CRT; format: biochemical; design: The CRT selectivity assay incorporates GST-tagged LXR-LBD; purchased Thermo Fisher Scientific PV4660; details: for activity at 1 µM: ligand 1 µM, interpolated from concentration-response, normalized, heat map Figure 9A, read-out: NCOR2β, relative % activity at 1 μM
[4] = system: high-fat diet (HFD) mouse model; design: method as in Lewandowski et al., 2021; details: ref Lewandowski et al., 2021; cited from earlier work
LXRα [5] = biological target: T2, LXRα; assay: NCOR2 corepressor binding to LXRα, CRT; format: biochemical; design: The CRT selectivity assay incorporates GST-tagged LXR-LBD; purchased Thermo Fisher Scientific PV4657; details: for activity at 1 µM: ligand 1 µM, interpolated from concentration-response, normalized, heat map Figure 9A, read-out: NCOR2α, relative % activity at 1 μM
E3/4FAD mice = system: E3/4FAD mice; design: method as in Velma et al., 2024; details: ref Velma et al., 2024; cited from earlier work
LXRα [6] = biological target: T2, LXRα; assay: SRC-1 coactivator recruitment to LXRα, coregulator TR-FRET (CRT); format: biochemical; design: The CRT selectivity assay incorporates GST-tagged LXR-LBD; purchased Thermo Fisher Scientific PV4657; details: maximal response relative to T0 (100%)
participants = system: participants; design: method as in Katz et al., 2009; details: all six participants on the highest 300 mg dose; ref Katz et al., 2009; cited from earlier work
primates = system: primates; design: method as in Quinet et al., 2009; details: 50 mg/kg/day p.o., returned to baseline at day 7, ref Quinet et al., 2009; cited from earlier work
Hamsters = system: Hamsters; design: method as in Quinet et al., 2009; details: ref Quinet et al., 2009; cited from earlier work
RXRα = biological target: T3, RXRα (Homo sapiens, UniProt P19793); assay: Coactivator D22 recruitment Lanthascreen RXRα; format: biochemical; details: normalized to SR11237
T3 construct: the reductionist system of NR-LBD with short coregulator peptides as used in the present work; purchased Thermo Fisher Scientific PV4799

[7] = system: sterol response element (SRE); assay: SRE-luc reporter assay in HepG2 cells; format: cell-based, human
From the text: Our phenotypic high-throughput screen (HTS) approach to identify nonlipogenic ABCA1 Inducers (NLAI) originally used counterscreening with a SREBP1c-luciferase reporter (linked to the SREBF1 gene promoter) in human hepatocarcinoma HepG2 cells ([Ben Aissa et al., 2021]). Unwanted lipogenesis is mediated by LXR agonists via direct transcriptional activation and indirectly by the effects of SREBP1c ([Schultz et al., 2000]; [Brown and Goldstein, 1997]). SREBP1c enhances transcription of genes required for synthesis of fatty acids and TG and as the dominant isoform in liver is associated most closely with lipogenesis and TG elevation ([Brown and Goldstein, 1997]). […] Binding of SREBP1c to the sterol response element (SRE) induces transcription of lipogenic genes associated with elevated TG. To better model the lipogenic axis in hepatocytes, we use HepG2 cells stably transfected with a nanoluciferase reporter downstream of a SRE promoter (SRE-luc), activation of which requires SREBP1c maturation.
HepG2 cells were cotransfected with SRE (LDLR)-NlucP SuperPiggyBac Transposon and a separate Transposase plasmid (System Biosciences). Cells were expanded for multiple passages followed by selection with puromycin (1 μg/ml). Stable cells constitutively express GFP allowed for FACS enrichment and/or cell cloning. Initially, stable pools were compared to low expressing and high expressing enriched pools. The optimal pool was selected based on assay performance (Z’) and was grown and maintained as above, with the addition of 1.0 μg/mL of puromycin biweekly.
Cells were split into flasks containing CS medium (EMEM supplemented with 10% charcoal stripped FBS (Gibco A52567-01)) and 1% P/S and grown at 37 °C /5% CO2 for 48 hr before plating. Cells were plated in 384-well, white clear tissue culture plates (Greiner 781098) and allowed to grow at 37 °C /5% CO2 for 24 hr before medium was aspirated and compound dilutions prepared in CS medium were added. Following a 24 hr incubation, the medium was aspirated, and cells were lysed/luminescence quantified using the Nano-Glo Luciferase Assay System (Promega N1130).

mice = system: mice; design: method as in Kick et al., 2015; Kirchgessner et al., 2015; details: highest dose 30 mg/kg qd, ref Kick et al., 2015, Kirchgessner et al.; cited from earlier work

T3 sequence (P19793 227-458 limits assumed): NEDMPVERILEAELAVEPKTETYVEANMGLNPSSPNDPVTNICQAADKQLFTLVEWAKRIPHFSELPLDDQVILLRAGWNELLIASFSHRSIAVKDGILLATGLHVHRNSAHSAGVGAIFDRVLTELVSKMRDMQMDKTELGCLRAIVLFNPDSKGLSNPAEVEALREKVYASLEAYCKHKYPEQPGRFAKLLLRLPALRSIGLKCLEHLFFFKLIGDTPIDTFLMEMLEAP

## CCOC(=O)c1cccc(NC(=O)c2sc(Cl)cc2S(=O)(=O)N(C)c2ccc(OCC)c(OCC)c2)c1 [CL2-57, Ethyl3-(5-chloro-3-(N-(3,4-diethoxyphenyl)-N-methylsulfamoyl)thiophene-2-carboxamido) benzoate]
LXRβ [1]
  activity at 1 µM: 99.4%
LXRα [2]
  activity at 1 µM: 100%
LXR
  Corepressor (NCOR2, SMRT2) displacement or stabilization, across LXR isoforms: little or no ability to displace NCOR2 and SMRT2 corepressors from LXR
LXRβ [3]
  activity at 1 µM: 107%
[4]
  Plasma and hepatic TG levels: attenuated diet-induced increases in plasma and hepatic TG levels
LXRα [5]
  activity at 1 µM: 110%

## CCOC(=O)c1cc(Cl)cc(NC(=O)c2sc(Cl)cc2S(=O)(=O)N(C)c2ccc(OCC)c(OC)c2)c1 [CL3-3, Ethyl3-chloro-5-(5-chloro-3-(N-(4-ethoxy-3-methoxyphenyl)-N-methylsulfamoyl)thiophene-2-carboxamido)benzoate]
E3/4FAD mice
  ABCA1 expression, APOE lipidation, AD phenotypes and TG: increased ABCA1 expression, enhanced APOE lipidation and reversed multiple AD phenotypes, without increasing TG
LXRα [6]
  Efficacy profile for SRC-1 recruitment to LXRα: partial agonist activity at LXRα
LXRβ [1]
  activity at 1 µM: 88.6%
LXRα [2]
  activity at 1 µM: 87.9%
LXR
  Corepressor (NCOR2, SMRT2) displacement or stabilization, across LXR isoforms: little or no ability to displace NCOR2 and SMRT2 corepressors from LXR
LXRβ [3]
  activity at 1 µM: 104%
LXRα [5]
  activity at 1 µM: 100%

## Fc1ccc(-c2c3cccc(C(F)(F)F)c3nn2Cc2ccc(F)cc2Cl)cc1 [LXR-623]
participants
  Adverse effects in clinical trial: neurologic or psychiatric adverse effects
primates
  Liver TG: significant increase in liver TG was observed but only at high dose
LXR
  Corepressor (NCOR2, SMRT2) displacement or stabilization, across LXR isoforms: little or no ability to displace NCOR2 and SMRT2 corepressors from LXR
Hamsters
  Plasma TG: did not cause a dose-dependent increase in plasma TG

## CC1(C)CCC(C)(C)c2cc(C3(c4ccc(C(=O)O)cc4)OCCO3)ccc21 [SR11237]
RXRα
  RXRα CRT response: RXRα-selective full agonists

## CC(C)(O)c1cn(-c2ccc(-c3cccc(S(C)(=O)=O)c3)cc2)c(C(C)(C)c2ccccc2Cl)n1 [XL652]
LXRβ [1]
  activity at 1 µM: 102%
LXRβ [1]; monoplex CRT
  Effect on SMRT2 binding to LXRβ: did not perturb SMRT2 binding to LXRβ
[7]
  SRE activation response/phenotype in HepG2: little or no activation of SRE at submicromolar concentrations
[7]; concentrations ≤1 µM
  Efficacy of SRE activation at concentrations ≤1 µM: 20–25 % of T0
LXRα [2]
  activity at 1 µM: 97%
LXRα [2]; monoplex CRT
  Effect on SMRT2 binding to LXRα: stabilization of SMRT2 corepressor binding to LXRα
mice
  Plasma TGs: elevated plasma TGs only at the highest dose
LXR
  Corepressor (NCOR2, SMRT2) displacement or stabilization, across LXR isoforms: strongly stabilized the corepressor-bound conformation
LXRβ [3]
  activity at 1 µM: 107%
LXRβ [3]; monoplex CRT, absence of SRC1
  Effect on NCOR2 binding to LXRβ: weakly destabilized the NCOR2 complex with both LXR isoforms
LXRα [5]
  activity at 1 µM: 100%
LXRα [5]; monoplex CRT, absence of SRC1
  Effect on NCOR2 binding to LXRα: weakly destabilized the NCOR2 complex with both LXR isoforms
